Experimental data: article PMC5443055 (Human Vaccines & Immunotherapeutics, 2014)

Test system: splenocytes of immunized HLA DR3 tg mice
Assay: Th1/Th2/Th17 cytokine bead array
Type: cell-based, mouse (HLA DR3 transgenic)
Details: ConA 2 μg/mL, positive control, consistent between arms

Concanavalin A [ConA] was tested, and the “IFNγ concentration above background” value (highest of panel) was 260 pg/mL and the “IL-4 concentration above background” value (lowest of panel) was 16 pg/mL.
